Laboratory results published in US12474327B2, “Metabolic profiling for the diagnosis of a subset of idiopathic autism spectrum disorder patients, ADS Phenotype 1” (STALICLA SA, priority 2018, dated 2025).

Legend:
[1] = system: ASD Phenotype 1 lymphoblastoid cell lines (LCLs); experiment: Energy production capacity (NADH, tetrazolium colorimetric assay, Biolog Phenotype Mammalian MicroArrays); type: cell-based, human
Description: (§1) The data reported in the present patent were generated from lymphoblastoid cell lines (LCLs) generated from lymphocytes from peripheral blood. Tubes containing anticoagulant citrate dextrose (ACD) were used to collect blood samples via venipuncture, in order to ensure that the blood cells remained metabolically active. The tubes were kept at room temperature and processed within 24 hours.
(§2) Cell lines were obtained by immortalization of lymphocytes from blood samples using Epstein-Barr virus. The lymphoblastoid cell lines were harvested in Sigma RPMI-1640 with 75 mL fetal bovine serum from Atlanta Biological (Lawrenceville, GA, USA) and 5 mL L-Glutamine and 5 mL antibiotic/antimycotic from Sigma-Aldrich (St. Louis, MO, USA).
(§3) Energy production of cells was measured using commercially available Phenotype Mammalian MicroArrays (PM-Ms, Biolog, Hayward, CA, USA).
(§4) The compound in each well was designed to be used by the cells, either as the sole energy source or as the metabolic effector influencing the utilization of an energy source (D-glucose) added in the cell suspension. The production of NADH per well was monitored using a colorimetric redox dye chemistry (Bochner et al. Assay of the multiple energy-producing pathways of mammalian cells. PLoS One 2011, 6(3):e18147). Before plating, cell viability and number were assessed utilizing a BioRad cell counter and a trypan blue dye.
(§5) The concentration of live cells required for plating was 4×10^5 cells/mL, corresponding to 20,000 cells per well in a volume of 50 μL. Only cell lines with viability of 55% or above were utilized for the experiments and, in order to minimize artifacts and biases due to prolonged cell culturing of transformed cells, LCLs were not been utilized if they had reached 15 passages. Cells were incubated for 48 h at 37° C. in 5% CO2, using the modified Biolog IF-M1 medium.
(§6) The Biolog IF-M1 medium was modified for plates PM-M1 by adding the following to 100 mL of Biolog IF-M1: 1.1 mL of 100× penicillin/streptomycin solution, 0.16 mL of 200 mM glutamine (final concentration 0.3 mM), and 5.3 mL of Fetal Bovine Serum (FBS, final concentration 5%). For plates PM-M6, 5.5 mM α-D-glucose was added instead of FBS.
(§7) After this first incubation, Biolog Redox Dye Mix MB was added (10 μL/well) and the plates were incubated under the same conditions for an additional 24 hours. As the cells metabolized the energy source, tetrazolium dye in the media was reduced, producing a purple color according to the amount of NADH generated.
(§8) For the last 24 hours of the experiment, plates were incubated in the Omnilog system, which collects optical density readings every 15 minutes, generating 96 data-points for each well. The system also elaborated the kinetic curve for the metabolic reaction in each well and extrapolated parameters such as slope, highest point, endpoint, area under the curve (AUC), and lag. The system performed parametric analysis by comparing kinetic curves of cases versus controls, both as individual sample or as cohorts.
(§9) At the end of the 24-hour incubation, plates were analyzed utilizing a microplate reader with readings at 590 and 750 nm. The first value (A590) indicated the highest absorbance peak of the redox dye and the second value (A750) gave a measure of the background noise. The relative absorbance (A590-750) was calculated per well.
(§10) Metabolic profiles of the same cell lines were then assessed after stimulation of the Nrf2 signaling pathway aiming to reproduce in control and Non-Ph1 cells the activation of the hub that occurs constitutively in ASD Ph1. In order to achieve the stimulation of the Nrf2 pathway, the cells were exposed to sulforaphane.

[2] = system: ASD non-Phenotype 1 lymphoblastoid cell lines (LCLs); experiment: as above; type: cell-based, human; details: for energy production capacity: ASD non-Phenotype 1 LCLs, in presence of D-Glucose
Description: as §1, §2, §3, §4, §5, §6, §7, §8, §9, §10

[3] = system: control lymphoblastoid cell lines (LCLs); experiment: as above; type: cell-based, human; details: for energy production capacity: in presence of D-Glucose
Description: as §1, §2, §3, §4, §5, §6, §7, §8, §9, §10

core symptoms of ASD = details: ASD patients treated in Singh et al.; cited from earlier work
ASD Phenotype 1 patients = details: short oral treatment, described in EP 17200185.1; cited from earlier work
[4] = Singh K et al., PNAS 2014; cited from earlier work

Row | SMILES | effect on the dibutyryl cAMP-induced increase of energy production capacity ([1]; ASD Ph1 cells, D-Glucose, treated with sulforaphane) | effect on energy production capacity ([1]; ASD Phenotype 1 cell lines, various carbon sources of energy (FIG. 1, FIG. 2: D-Glucose, maltose), exposed to sulforaphane) | energy production capacity [2] | metabolic profile (PCA of energy production capacity) ([2]; ASD non-Phenotype 1 cells exposed to sulforaphane, various carbon sources of energy) | energy production capacity ([3]; control LCLs) | metabolic profile (PCA of energy production capacity) ([3]; control cells exposed to sulforaphane, various carbon sources of energy) | core symptoms of ASD (as measured by the ADOS 2) (core symptoms of ASD) | behavioral response (ADI-r SI, ADI-r C or ADI-r RI) (ASD Phenotype 1 patients) | tolerability of administration to humans [4] | toxicity [4] | energy production capacity ([1]; Phenotype 1 cells, in the presence of D-Glucose, increasing concentrations) | energy production capacity after pretreatment with sulforaphane (Nrf2 activation) ([2]; ASD non-Ph1 LCLs, in presence of glucose) | energy production capacity after pretreatment with sulforaphane (Nrf2 activation) ([3]; control LCLs, in presence of glucose, addition of dibutyryl cAMP)
1 | C[S@@+]([O-])CCCCN=C=S [sulforaphane, 1-isothiocyanato-4R-(methylsulfinyl)butane] | did not modify the response to dibutyryl cAMP | lack of effect | produced a decrease | comparable to Ph1 cells at baseline | produced a decrease | comparable to Ph1 cells at baseline | significant improvements | negative behavioral response | well tolerated | low toxicity |  |  | 
2 | CCCC(=O)Nc1ncnc2c1ncn2[C@@H]1O[C@@H]2COP(=O)(O)O[C@H]2[C@H]1OC(=O)CCC [dibutyryl cAMP, dibutyril-cyclic adenosine monophosphate] |  |  | no effect |  | no effect |  |  |  |  |  | increased | restituted | restituted
